Assay results as given in publication PMC8286840, “Identifying SARS-CoV-2 antiviral compounds by screening for small molecule inhibitors of Nsp3 papain-like protease” (Biochemical Journal, 2021).
Where a name gives a salt, the structure may show the parent alone. Read-outs that look alike come from different tables or passages of the source. Where a SMILES comes first, the peptide text is derived from it. [ ]: non-standard residue; d: D form. The star is where a group is joined. Dolaproine = CO[C@@H]([C@@H]1CCCN1)[C@@H](C)C(=O)O; Hexanoyl(6-maleimido) = O=C1C=CC(=O)N1CCCCCC(=O)*; Dil = CC[C@H](C)[C@H](NC)[C@@H](CC(=O)O)OC; X2 = C[C@@H](N*)[C@@H](O)c1ccccc1; NMeV = CN[C@H](C(=O)O)C(C)C

How the values were obtained:
[1] = target: T1, SARS-CoV-2 PLpro (nsp3 1564–1878) (Severe acute respiratory syndrome coronavirus 2, UniProt P0DTD1); assay: biochemical; set-up: FRET-quenched peptide (Pro3) cleavage by PLpro, 10 min pre-incubation, slope over 20 min, normalised to no-compound control; conditions: read-out: % of control remaining
[2] = target: T1, SARS-CoV-2 PLpro (nsp3 1564–1878); assay: biochemical; set-up: FRET-quenched peptide (Pro3) cleavage by PLpro, 10 min pre-incubation, slope over 20 min, normalised to no-compound control; conditions: read-out: % of control remaining; remark: listed apart in the source

Compound: O=C(O)c1ccccc1O [Sodium salicylate]
- remaining activity at 1.25 µM ([1]; Well no.=4971, low concentration screen): 98.6%
- remaining activity at 3.75 µM ([2]; Well no.=4971, high concentration screen): 97.2%

Compound: COc1cc2c(CCNC(C)=O)c[nH]c2cc1O [6-Hydroxymelatonin]
- remaining activity at 1.25 µM ([1]; Well no.=654, low concentration screen): 95.9%
- remaining activity at 3.75 µM ([2]; Well no.=654, high concentration screen): 96.7%

Compound: CNC(=O)CN1CCC(Oc2cc3c(Nc4cccc(Cl)c4F)ncnc3cc2OC)CC1 [AZD8931]
- remaining activity at 1.25 µM ([1]; Well no.=5144, low concentration screen): 103%
- remaining activity at 3.75 µM ([2]; Well no.=5144, high concentration screen): 102%

Compound: C[S+]([O-])CCCN=C=S (stereo not drawn) [Iberin]
- remaining activity at 1.25 µM [1]: 95.3%
- remaining activity at 3.75 µM [2]: 90.7%

Compound: CC[C@H](C)[C@@H]([C@@H](CC(=O)N1CCC[C@H]1[C@H](OC)[C@@H](C)C(=O)N[C@H](C)[C@@H](O)c1ccccc1)OC)N(C)C(=O)[C@@H](NC(=O)[C@H](C(C)C)N(C)C(=O)CCCCCN1C(=O)C=CC1=O)C(C)C [Mc-MMAE] ({Hexanoyl(6-maleimido)}-[NMeV]V[Dil][Dolaproine]-X2)
- remaining activity at 1.25 µM ([1]; Well no.=8552, low concentration screen): 93.6%
- remaining activity at 3.75 µM ([2]; Well no.=8552, high concentration screen): 98.9%

Compound: COc1cc2c3cc1Oc1c(OC)c(OC)cc4c1[C@@H](Cc1ccc(O)c(c1)Oc1ccc(cc1)C[C@@H]3N(C)CC2)N(C)CC4
- remaining activity at 1.25 µM ([1]; Well no.=3633, low concentration screen): 103%
- remaining activity at 3.75 µM ([2]; Well no.=3633, high concentration screen): 103%

Compound: C[N+]1(C)CCC[C@H]1C(=O)[O-] [Stachydrine]
- remaining activity at 1.25 µM ([1]; Well no.=6917, low concentration screen): 109%
- remaining activity at 1.25 µM ([1]; Well no.=7414, low concentration screen): 104%
- remaining activity at 3.75 µM ([2]; Well no.=6917, high concentration screen): 93.7%
- remaining activity at 3.75 µM ([2]; Well no.=7414, high concentration screen): 102%

Compound: O=C(Nc1ccncc1)c1cc([N+](=O)[O-])ccc1Cl [T0070907]
- remaining activity at 1.25 µM ([1]; Well no.=4833, low concentration screen): 103%
- remaining activity at 3.75 µM ([2]; Well no.=4833, high concentration screen): 106%

Compound: COc1ccc(CNC(=O)c2sc3nc(C)cc(C)c3c2N)cc1 [VU0152100]
- remaining activity at 1.25 µM ([1]; Well no.=5931, low concentration screen): 95.9%
- remaining activity at 1.25 µM ([1]; Well no.=7293, low concentration screen): 91.9%
- remaining activity at 3.75 µM ([2]; Well no.=5931, high concentration screen): 98.2%
- remaining activity at 3.75 µM ([2]; Well no.=7293, high concentration screen): 88.9%

Compound: CC(=O)N[C@@H](CS)C(=O)O [N-Acetyl-L-Cysteine]
- remaining activity at 1.25 µM ([1]; Well no.=4, low concentration screen): 98.3%
- remaining activity at 3.75 µM ([2]; Well no.=4, high concentration screen): 97.6%

Compound: CCCCC[C@@H](/C=C/C=C\CCCCCCCCCC(=O)O)OO [15(S)-HPEDE]
- remaining activity at 1.25 µM ([1]; Well no.=4333, low concentration screen): 108%
- remaining activity at 3.75 µM ([2]; Well no.=4333, high concentration screen): 105%

Compound: Nc1ncnc2c1ncn2[C@H]1C[C@H](O)[C@@H](CO)O1 [2'-Deoxyadenosine monohydrate]
- remaining activity at 1.25 µM ([1]; Well no.=8885, low concentration screen): 95.3%
- remaining activity at 3.75 µM ([2]; Well no.=8885, high concentration screen): 90.7%

Compound: Cc1ncc([N+](=O)[O-])n1CC(O)CCl (stereo not drawn) [Ornidazole]
- remaining activity at 1.25 µM ([1]; Well no.=4939, low concentration screen): 101%
- remaining activity at 3.75 µM ([2]; Well no.=4939, high concentration screen): 97.6%

Compound: Nc1nccc2c1ncn2[C@@H]1O[C@H](CO)[C@@H](O)[C@H]1O [3-Deazaadenosine (hydrochloride)]
- remaining activity at 1.25 µM ([1]; Well no.=7808, low concentration screen): 96.7%
- remaining activity at 3.75 µM ([2]; Well no.=7808, high concentration screen): 92.6%

Compound: CN(CCOc1ccc(C[C@H](Nc2ccccc2C(=O)c2ccccc2)C(=O)O)cc1)c1ccccn1 [GW1929]
- remaining activity at 1.25 µM ([1]; Well no.=8120, low concentration screen): 97.1%
- remaining activity at 3.75 µM ([2]; Well no.=477, high concentration screen): 96.6%
- remaining activity at 3.75 µM ([2]; Well no.=8120, high concentration screen): 94.2%

Compound: O=C(O)c1cc2cc(Cc3cccnc3)ccc2o1 [Furegrelate sodium]
- remaining activity at 1.25 µM ([1]; Well no.=563, low concentration screen): 97.2%
- remaining activity at 3.75 µM ([2]; Well no.=563, high concentration screen): 97.3%

Compound: CSc1nc(-c2ccnc(NC(C)c3ccccc3)c2)c(-c2ccc(F)cc2)[nH]1 (stereo not drawn) [p38 MAP Kinase Inhibitor III]
- remaining activity at 1.25 µM ([1]; Well no.=2596, low concentration screen): 94.7%
- remaining activity at 3.75 µM ([2]; Well no.=2596, high concentration screen): 94.5%

Compound: O=C1C(Cl)=C(N2C(=O)CCC2=O)C(=O)c2ccccc21 [MEK Inhibitor II]
- remaining activity at 1.25 µM ([1]; Well no.=2560, low concentration screen): 98%
- remaining activity at 3.75 µM ([2]; Well no.=2560, high concentration screen): 98.5%

Compound: COc1c(O)cc(O)c2c(=O)cc(-c3ccccc3)oc12 [Wogonin]
- remaining activity at 1.25 µM ([1]; Well no.=3735, low concentration screen): 96.1%
- remaining activity at 3.75 µM ([2]; Well no.=3735, high concentration screen): 98.6%

Compound: O=c1[nH]c2cc(C(F)(F)F)ccc2n1-c1cc(C(F)(F)F)ccc1O [NS-1619]
- remaining activity at 1.25 µM ([1]; Well no.=846, low concentration screen): 104%
- remaining activity at 3.75 µM ([2]; Well no.=846, high concentration screen): 102%

Compound: CCCCn1c(=O)c2c(ncn2CC(C)=O)n(CCCC)c1=O [Denbufylline]
- remaining activity at 1.25 µM ([1]; Well no.=1765, low concentration screen): 102%
- remaining activity at 3.75 µM ([2]; Well no.=1765, high concentration screen): 99.8%

Compound: Cc1o[nH]c(=O)c1CC(N)C(=O)O (racemic)
- remaining activity at 1.25 µM ([1]; Well no.=508, low concentration screen): 99.4%
- remaining activity at 3.75 µM ([2]; Well no.=508, high concentration screen): 100%

Compound: CN(N=O)c1cc(O)ccc1O [Dephostatin]
- remaining activity at 1.25 µM ([1]; Well no.=392, low concentration screen): 97.4%
- remaining activity at 3.75 µM ([2]; Well no.=392, high concentration screen): 97.3%

Compound: CCOC(=O)c1cncn1[C@H](C)c1ccccc1 [Etomidate]
- remaining activity at 1.25 µM ([1]; Well no.=5187, low concentration screen): 100%
- remaining activity at 3.75 µM ([2]; Well no.=5187, high concentration screen): 101%

Compound: COc1ccc2c(c1)c(CC(=O)O)c(C)n2Cc1ccc(F)cc1 [1-(4-Fluorobenzyl)-5-methoxy-2-methylindole-3-acetic acid]
- remaining activity at 1.25 µM ([1]; Well no.=515, low concentration screen): 99.4%
- remaining activity at 3.75 µM ([2]; Well no.=515, high concentration screen): 99.5%

Compound: O=C(/C=C/c1ccc(O)c(O)c1)O[C@@H]1C[C@@](O)(C(=O)O)C[C@@H](O)[C@@H]1O [Neochlorogenic acid]
- remaining activity at 1.25 µM ([1]; Well no.=6490, low concentration screen): 98%
- remaining activity at 3.75 µM ([2]; Well no.=6490, high concentration screen): 98.3%

Compound: C[C@@H]1C(=O)NC2=Nc3cccc(Cl)c3CN21 [Quazinone]
- remaining activity at 1.25 µM ([1]; Well no.=1221, low concentration screen): 96.6%
- remaining activity at 3.75 µM ([2]; Well no.=1221, high concentration screen): 95.5%

Compound: CCOc1cc(CC(=O)N[C@@H](CC(C)C)c2ccccc2N2CCCCC2)ccc1C(=O)O [Repaglinide]
- remaining activity at 1.25 µM ([1]; Well no.=4817, low concentration screen): 101%
- remaining activity at 3.75 µM ([2]; Well no.=4817, high concentration screen): 95.8%

Compound: CCCOc1ccc(/C=C2/SC(=O)NC2=O)cc1 [PIM1/2 Kinase Inhibitor VI]
- remaining activity at 1.25 µM ([1]; Well no.=2571, low concentration screen): 97.6%
- remaining activity at 3.75 µM ([2]; Well no.=2571, high concentration screen): 97%

Compound: COc1cc2ncnc(Nc3ccc(NC(=O)c4ccccc4)cc3)c2cc1OC [Aurora Kinase Inhibitor II]
- remaining activity at 1.25 µM ([1]; Well no.=2321, low concentration screen): 99.4%
- remaining activity at 3.75 µM ([2]; Well no.=2321, high concentration screen): 99.9%

Compound: CCC1(c2cccc(O)c2)CCCCN(C)C1 (stereo not drawn) [Meptazinol (hydrochloride)]
- remaining activity at 1.25 µM ([1]; Well no.=6511, low concentration screen): 102%
- remaining activity at 3.75 µM ([2]; Well no.=6511, high concentration screen): 98.2%

Compound: CCCCCCCCCCCCC/C=C/[C@@H](O)[C@H](CO)NC(C)=O [C2 Ceramide]
- remaining activity at 1.25 µM ([1]; Well no.=4363, low concentration screen): 108%
- remaining activity at 3.75 µM ([2]; Well no.=4363, high concentration screen): 104%

Compound: COc1cc([C@H]2Oc3cc([C@H]4Oc5cc(O)cc(O)c5C(=O)[C@@H]4O)ccc3O[C@@H]2CO)ccc1O [Silybine]
- remaining activity at 1.25 µM ([1]; Well no.=3753, low concentration screen): 101%
- remaining activity at 3.75 µM ([2]; Well no.=3753, high concentration screen): 104%

Compound: CCCCCOC(=O)Nc1nc(=O)n([C@@H]2O[C@H](C)[C@@H](O)[C@H]2O)cc1F [Capecitabine]
- remaining activity at 1.25 µM ([1]; Well no.=2290, low concentration screen): 96.5%
- remaining activity at 3.75 µM ([2]; Well no.=2290, high concentration screen): 96.5%

Compound: CCN1CCC[C@H]1CNC(=O)c1c(OC)ccc(Br)c1OC [Remoxipride]
- remaining activity at 1.25 µM ([1]; Well no.=1819, low concentration screen): 100%
- remaining activity at 3.75 µM ([2]; Well no.=1819, high concentration screen): 99.4%
